From US8129415B2

test: logP by HPLC on reversed-phase column (C 18), EEC Directive 79/831 Annex V.A8; assay type: physicochemical; conditions: not given

chromatographic logP	SMILES
2.9	Cc1nnnn1/C(=N/OCc1csc(NC(=O)C(C)(C)C)n1)c1ccc(Cl)nc1 [compound 31]
1.18	Cc1cccc(/C(=N\OCc2cccc(N)n2)n2nnnc2C)n1 [compound 87, O-(2-Aminopyridin-6-yl)methyl-(6-methylpyridin-2-yl)-(5-methyltetrazol-1-yl)methanone oxime]
3.43	CCCCCC(=O)Nc1cccc(CO/N=C(\c2cccc(C)n2)n2nnnc2C)n1 [compound 92, O-[2-(Pentylcarbonylamino)pyridin-6-yl]methyl-(6-methylpyridin-2-yl)-(5-methyltetrazol-1-yl)methanone Oxime]
1.04	Cc1cccnc1/C(=N\OCc1csc(N)n1)c1nnnn1C [compound 157, O-(2-Amino-1,3-thiazol-4-yl)methyl-(3-methylpyridin-2-yl)-(1-methyltetrazol-5-yl)methanone Oxime]
2.94	CCCCCC(=O)Nc1nc(CO/N=C(\c2ncccc2C)c2nnnn2C)cs1 [compound 158, O-(2-Pentylcarbonylmino-1,3-thiazol-4-yl)methyl-(3-methylpyridin-2-yl)-(1-methyltetrazol-5-yl)methanone oxime]

same assay, conditions: HPLC reversed-phase C 18, 40° C., 0.1% aqueous formic acid and acetonitrile gradient

SMILES	LogP
Cc1nnnn1C(=NOCc1csc(N)n1)c1ccccn1 [compound 1]	0.83
C=C(C)C(=O)Nc1nc(CON=C(c2ccccn2)n2nnnc2C)cs1 [compound 3]	2.06
Cc1nnnn1C(=NOCc1nonc1N)c1ccccn1 [compound 6]	1.52
Cc1nnnn1C(=NOCc1csc(NC(=O)C2CC2)n1)c1ccccn1 [compound 14]	1.99
COc1ccc(CCNC(=O)Nc2nc(CON=C(c3ccccn3)n3nnnc3C)cs2)cc1 [compound 22]	2.44
Cc1nnnn1C(=NOCc1csc(NC(=O)NCCc2cccc(Cl)c2)n1)c1ccccn1 [compound 24]	2.79
Cc1nnnn1C(=NOCc1csc(NC(=O)NC(C)(C)C)n1)c1ccccn1 [compound 28]	2.16
Cc1nnnn1C(=NOCc1csc(N)n1)c1ccc(Cl)nc1 [compound 34]	1.27
Cc1nnnn1C(=NOCc1csc(NC(=O)c2ccccc2)n1)c1ccc(Cl)nc1 [compound 36]	2.87
Cc1nnnn1C(=NOCc1csc(NC(=O)C2CC2)n1)c1ccc(Cl)nc1 [compound 39]	2.36
Cc1nnnn1C(=NOCc1csc(NC(=O)NC2CC2)n1)c1ccc(Cl)nc1 [compound 48]	1.98
Cc1nnnn1C(=NOCc1csc(NC(=O)c2cccs2)n1)c1ccc(Cl)nc1 [compound 59]	2.82
Cc1nnnn1C(=NOCc1csc(NC(=O)c2ccco2)n1)c1ccc(Cl)nc1 [compound 69]	2.46
Cc1ccc(OC(=O)Nc2nc(CON=C(c3ccc(Cl)nc3)n3nnnc3C)cs2)cc1 [compound 76]	3.48
CCCC(=O)Nc1nc(CON=C(c2cccc(C)n2)n2nnnc2C)cs1 [compound 82]	2.38
Cc1cccc(C(=NOCc2csc(NC(=O)c3ccccc3)n2)n2nnnc2C)n1 [compound 83]	2.78
Cc1cccc(C(=NOCc2noc(-c3cccc(C(F)(F)F)c3)n2)n2nnnc2C)n1 [compound 86]	3.67
CCCC(=O)Nc1cccc(CON=C(c2cccc(C)n2)n2nnnc2C)n1 [compound 90]	2.7
COC(=O)c1coc(CON=C(c2cccc(C)n2)n2nnnc2C)n1 [compound 98]	2.01
CCCNC(=O)Nc1nc(CON=C(c2cccc(C)n2)n2nnnc2C)cs1 [compound 103]	2.17
COc1cccc(CNC(=O)Nc2nc(CON=C(c3cccc(C)n3)n3nnnc3C)cs2)c1 [compound 104]	2.59
Cc1cccc(C(=NOCc2csc(NC(=O)NCCc3ccc(F)cc3)n2)n2nnnc2C)n1 [compound 105]	2.78
Cc1cccc(C(=NOCc2csc(NC(=O)NCCc3ccc(Cl)cc3Cl)n2)n2nnnc2C)n1 [compound 106]	3.43
Cc1cccc(C(=NOCc2csc(NC(=O)NCCc3ccccc3)n2)n2nnnc2C)n1 [compound 107]	2.72
CCCCCC(=O)Nc1nc(CON=C(c2cnccc2OC)n2nnnc2C)cs1 [compound 136]	3.44
COc1ccncc1C(=NOCc1csc(NC(=O)CCc2ccccc2)n1)n1nnnc1C [compound 139]	3.31
CCCCCCCCOC(=O)Nc1nc(CON=C(c2cnccc2OC)n2nnnc2C)cs1 [compound 147]	5.03
COc1ncccc1C(=NOCc1cccc(N)n1)n1nnnc1C [compound 152]	1.03
COc1ncccc1C(=NOCc1nc(N)sc1Br)n1nnnc1C [compound 153]	2.27
Cc1cccnc1C(=NOCc1csc(NC(=O)Cc2ccccc2)n1)c1nnnn1C [compound 159]	2.62

Further lines, results first:

LogP	SMILES
2.7	CCCCCC(=O)Nc1nc(CON=C(c2ccccn2)n2nnnc2C)cs1 [compound 4]
1.76	Cc1nc(CON=C(c2ccccn2)n2nnnc2C)cs1 [compound 7]
0.76	Cc1nnnn1C(=NOCc1cccc(N)n1)c1ccccn1 [compound 9]
2.38	Cc1nnnn1C(=NOCc1noc(-c2ccco2)n1)c1ccccn1 [compound 11]
2.15	Cc1nnnn1C(=NOCc1csc(NC(=O)NCc2ccccc2)n1)c1ccccn1 [compound 15]
1.95	CCCNC(=O)Nc1nc(CON=C(c2ccccn2)n2nnnc2C)cs1 [compound 19]
1.3	Cc1nnnn1C(=NOCc1nsc(N)n1)c1ccccn1 [compound 21]
1.61	Cc1nnnn1C(=NOCc1csc(NC(=O)NC2CC2)n1)c1ccccn1 [compound 26]
3.16	Cc1nnnn1C(=NOCc1csc(NC(=O)C2CCCCC2)n1)c1ccc(Cl)nc1 [compound 32]
1.88	Cc1nnnn1C(=NOCc1nonc1N)c1ccc(Cl)nc1 [compound 33]
2.33	Cc1nc(CON=C(c2ccc(Cl)nc2)n2nnnc2C)cs1 [compound 40]
1.78	Cc1nnnn1C(=NOCc1nsc(N)n1)c1ccc(Cl)nc1 [compound 44]
3.09	Cc1nnnn1C(=NOCc1nc(Cc2ccccc2)no1)c1ccc(Cl)nc1 [compound 49]
4.47	Cc1nnnn1C(=NOCc1noc(-c2ccc(C(C)(C)C)cc2)n1)c1ccc(Cl)nc1 [compound 50]
2.97	COc1ccc(C(=O)Nc2nc(CON=C(c3ccc(Cl)nc3)n3nnnc3C)cs2)cc1 [compound 57]
2.97	Cc1nnnn1C(=NOCc1csc(NC(=O)C2CCCC2)n1)c1ccc(Cl)nc1 [compound 58]
2.17	COCCC(=O)Nc1nonc1CON=C(c1ccc(Cl)nc1)n1nnnc1C [compound 72]
2.4	COCCOCC(=O)Nc1nc(CON=C(c2ccc(Cl)nc2)n2nnnc2C)cs1 [compound 78]
1.2	Cc1cccc(C(=NOCc2csc(N)n2)n2nnnc2C)n1 [compound 80]
1.94	Cc1cccc(C(=NOCc2nonc2N)n2nnnc2C)n1 [compound 84]
4.5	Cc1cccc(C(=NOCc2noc(-c3ccc(C(C)(C)C)cc3)n2)n2nnnc2C)n1 [compound 93]
3.11	Cc1cccc(C(=NOCc2noc(-c3ccccc3)n2)n2nnnc2C)n1 [compound 95]
1.59	Cc1cccc(C(=NOCc2nsc(N)n2)n2nnnc2C)n1 [compound 96]
2.4	C=C(C)C(=O)Nc1nc(CON=C(c2cccc(C)n2)n2nnnc2C)cs1 [compound 97]
3.34	Cc1cccc(C(=NOCc2csc(NC(=O)NCCc3ccc(Cl)c(Cl)c3)n2)n2nnnc2C)n1 [compound 102]
2.69	COc1ccccc1CNC(=O)Nc1nc(CON=C(c2cccc(C)n2)n2nnnc2C)cs1 [compound 108]
3.13	COc1ccncc1C(=NOCc1csc(NC(=O)c2ccccc2)n1)n1nnnc1C [compound 137]
2.25	COCCC(=O)Nc1nc(CON=C(c2cnccc2OC)n2nnnc2C)cs1 [compound 138]
1.24	COc1ncccc1C(=NOCc1csc(N)n1)n1nnnc1C [compound 154]
